Experiments:
CCRF-CEM = test: cells; conditions: Homo sapiens, 48 h; for GI50: read-out: Median Growth Inhibitory Concentration (GI50); for CC50: read-out: Median Lethal Concentration (LC50)
MOLT-4 = test: cells; conditions: Homo sapiens, MOLT-4, 48 h; for GI50: read-out: Median Growth Inhibitory Concentration (GI50); for CC50: read-out: Median Lethal Concentration (LC50)
RPMI-8226 = test: cells; conditions: Homo sapiens, RPMI-8226, 48 h; for GI50: read-out: Median Growth Inhibitory Concentration (GI50); for CC50: read-out: Median Lethal Concentration (LC50)
HOP-62 = test: cells; conditions: Homo sapiens, HOP-62, 48 h; for GI50: read-out: Median Growth Inhibitory Concentration (GI50); for CC50: read-out: Median Lethal Concentration (LC50)
NCI-H23 = test: cells; conditions: Homo sapiens, NCI-H23, 48 h; for GI50: read-out: Median Growth Inhibitory Concentration (GI50); for CC50: read-out: Median Lethal Concentration (LC50)
COLO 205 = test: cells; conditions: Homo sapiens, COLO 205, 48 h; for GI50: read-out: Median Growth Inhibitory Concentration (GI50); for CC50: read-out: Median Lethal Concentration (LC50)
KM12 = test: cells; conditions: Homo sapiens, KM12, 48 h; for GI50: read-out: Median Growth Inhibitory Concentration (GI50); for CC50: read-out: Median Lethal Concentration (LC50)
SF-295 = test: cells; conditions: Homo sapiens, SF-295, 48 h; for GI50: read-out: Median Growth Inhibitory Concentration (GI50); for CC50: read-out: Median Lethal Concentration (LC50)
SNB-19 = test: cells; conditions: Homo sapiens, SNB-19, 48 h; for GI50: read-out: Median Growth Inhibitory Concentration (GI50); for CC50: read-out: Median Lethal Concentration (LC50)
SNB-75 = test: cells; conditions: Homo sapiens, SNB-75, 48 h; for GI50: read-out: Median Growth Inhibitory Concentration (GI50); for CC50: read-out: Median Lethal Concentration (LC50)
M14 = test: cells; conditions: Homo sapiens, M14, 48 h; for GI50: read-out: Median Growth Inhibitory Concentration (GI50); for CC50: read-out: Median Lethal Concentration (LC50)
SK-MEL-28 = test: cells; conditions: Homo sapiens, SK-MEL-28, 48 h; for GI50: read-out: Median Growth Inhibitory Concentration (GI50); for CC50: read-out: Median Lethal Concentration (LC50)
SK-MEL-5 = test: cells; conditions: Homo sapiens, SK-MEL-5, 48 h; for GI50: read-out: Median Growth Inhibitory Concentration (GI50); for CC50: read-out: Median Lethal Concentration (LC50)
IGROV1 = test: cells; conditions: Homo sapiens, IGROV-1, 48 h; for GI50: read-out: Median Growth Inhibitory Concentration (GI50); for CC50: read-out: Median Lethal Concentration (LC50)
OVCAR-3 = test: cells; conditions: Homo sapiens, OVCAR-3, 48 h; for GI50: read-out: Median Growth Inhibitory Concentration (GI50); for CC50: read-out: Median Lethal Concentration (LC50)
OVCAR-4 = test: cells; conditions: Homo sapiens, OVCAR-4, 48 h; for GI50: read-out: Median Growth Inhibitory Concentration (GI50); for CC50: read-out: Median Lethal Concentration (LC50)
SK-OV-3 = test: cells; conditions: Homo sapiens, SK-OV-3, 48 h; for GI50: read-out: Median Growth Inhibitory Concentration (GI50); for CC50: read-out: Median Lethal Concentration (LC50)
786-0 = test: cells; conditions: Homo sapiens, 786-0, 48 h; for GI50: read-out: Median Growth Inhibitory Concentration (GI50); for CC50: read-out: Median Lethal Concentration (LC50)
A498 = test: cells; conditions: Homo sapiens, A498, 48 h; for GI50: read-out: Median Growth Inhibitory Concentration (GI50); for CC50: read-out: Median Lethal Concentration (LC50)
TK-10 = test: cells; conditions: Homo sapiens, TK-10, 48 h; for GI50: read-out: Median Growth Inhibitory Concentration (GI50); for CC50: read-out: Median Lethal Concentration (LC50)
UO-31 = test: cells; conditions: Homo sapiens, UO-31, 48 h; for GI50: read-out: Median Growth Inhibitory Concentration (GI50); for CC50: read-out: Median Lethal Concentration (LC50)
PC-3 = test: cells; conditions: Homo sapiens, PC-3, 48 h; for GI50: read-out: Median Growth Inhibitory Concentration (GI50); for CC50: read-out: Median Lethal Concentration (LC50)
DU-145 = test: cells; conditions: Homo sapiens, DU-145, 48 h; for GI50: read-out: Median Growth Inhibitory Concentration (GI50); for CC50: read-out: Median Lethal Concentration (LC50)
MDA-MB-231 = test: cells; conditions: Homo sapiens, MDA-MB-231, 48 h; for GI50: read-out: Median Growth Inhibitory Concentration (GI50); for CC50: read-out: Median Lethal Concentration (LC50)
MDA-MB-435 = test: cells; conditions: Homo sapiens, MDA-MB-435, 48 h; for GI50: read-out: Median Growth Inhibitory Concentration (GI50); for CC50: read-out: Median Lethal Concentration (LC50)
BT-549 = test: cells; conditions: Homo sapiens, BT-549, 48 h; for GI50: read-out: Median Growth Inhibitory Concentration (GI50); for CC50: read-out: Median Lethal Concentration (LC50)
T-47D = test: cells; conditions: Homo sapiens, T47D, 48 h; for GI50: read-out: Median Growth Inhibitory Concentration (GI50); for CC50: read-out: Median Lethal Concentration (LC50)
[1] = system: Sixty human tumor cell lines; conditions: for GI50: read-out: Median Growth Inhibitory Concentration (GI50), Mean, Mean over the NCI cell lines
[2] = NCI Anti-Tumor Screen, several cell types

## OC(CCc1ccc(F)cc1F)CCc1ccc(F)cc1F [EF19, 1,5-Bis(2,4-difluorophenyl)-pentan-3-ol]
CCRF-CEM
  GI50: 18.2 µM
  CC50: 72.3 µM
MOLT-4
  GI50: 2.6 µM
  CC50: 75.6 µM
RPMI-8226
  GI50: 21.7 µM
  CC50: > 100 µM
HOP-62
  GI50: 18 µM
  CC50: 58.7 µM
NCI-H23
  GI50: 22.8 µM
  CC50: 96.8 µM
COLO 205
  GI50: 17.5 µM
  CC50: 55.9 µM
KM12
  GI50: 17.6 µM
  CC50: 56.1 µM
SF-295
  GI50: 18.7 µM
  CC50: 69.7 µM
SNB-19
  GI50: 16.1 µM
  CC50: 57.3 µM
SNB-75
  GI50: 19 µM
  CC50: 57.5 µM
M14
  GI50: 18.3 µM
  CC50: 68.7 µM
SK-MEL-28
  GI50: 17.1 µM
  CC50: 55.6 µM
SK-MEL-5
  GI50: 17.1 µM
  CC50: 55.5 µM
IGROV1
  GI50: 17.2 µM
  CC50: 55.6 µM
OVCAR-3
  GI50: 17.9 µM
  CC50: 59.3 µM
OVCAR-4
  GI50: 17.4 µM
  CC50: 65.1 µM
SK-OV-3
  GI50: 18.5 µM
  CC50: 65.9 µM
786-0
  GI50: 17 µM
  CC50: 55.4 µM
A498
  GI50: 16.3 µM
  CC50: 54.7 µM
TK-10
  GI50: 17.4 µM
  CC50: 56.3 µM
UO-31
  GI50: 18.2 µM
  CC50: 56.6 µM
PC-3
  GI50: 17.5 µM
  CC50: 56.7 µM
DU-145
  GI50: 18.1 µM
  CC50: 56.6 µM
MDA-MB-231
  GI50: 22.4 µM
  CC50: 66.3 µM
MDA-MB-435
  GI50: 17.1 µM
  CC50: 55.6 µM
BT-549
  GI50: 17.9 µM
  CC50: 64.7 µM
T-47D
  GI50: 15.5 µM
  CC50: 68.9 µM

## N.N.[Cl][Pt][Cl] [Cisplatin, reference compound]
[1]; 48 hours
  GI50: 0.7 µM

## O=C1C(=Cc2ccccc2O)COCC1=Cc1ccccc1O [EF25, 3,5-Bis(2-hyrdoxybenzylidene)tetrahydro4-H-pyran4-one]
[1]; [2]
  GI50 compared with CISPLATIN, in words: lower GI50 than the chemotherapeutic agent CISPLATIN for several cell types
  LC50 compared with CISPLATIN, in words: lower LC50 than the chemotherapeutic agent CISPLATIN for several cell types
[1]; 48 hours
  GI50: 1.1 µM
[1]; read-out: Median Lethal Concentration (LC50), Mean, Mean over the cell line panel, 48 hours, SRB assay
  CC50: 24.2 µM

## CC1(/C=C/c2ccccc2O)C=Cc2ccccc2O1 (stereo not drawn) [EF7]
CCRF-CEM
  GI50: 12.5 µM
  CC50: 79.5 µM
MOLT-4
  GI50: 7.7 µM
  CC50: 64.7 µM
RPMI-8226
  GI50: 14.8 µM
  CC50: 92.7 µM
HOP-62
  GI50: 16.3 µM
  CC50: 63.1 µM
NCI-H23
  GI50: 17.6 µM
  CC50: 62.9 µM
COLO 205
  GI50: 17.5 µM
  CC50: 55.9 µM
KM12
  GI50: 17.1 µM
  CC50: 55.5 µM
SF-295
  GI50: 15.5 µM
  CC50: 55.1 µM
SNB-19
  GI50: 17.5 µM
  CC50: 55.9 µM
SNB-75
  GI50: 11.8 µM
  CC50: 49 µM
M14
  GI50: 15.7 µM
  CC50: 54 µM
SK-MEL-28
  GI50: 17.4 µM
  CC50: 62.9 µM
SK-MEL-5
  GI50: 15.5 µM
  CC50: 53.7 µM
IGROV1
  GI50: 15.9 µM
  CC50: 60.9 µM
OVCAR-3
  GI50: 15.6 µM
  CC50: 54.5 µM
OVCAR-4
  GI50: 14.1 µM
  CC50: 53.1 µM
SK-OV-3
  GI50: 16.6 µM
  CC50: 56.2 µM
786-0
  GI50: 16.4 µM
  CC50: 54.8 µM
A498
  GI50: 17.2 µM
  CC50: 55.6 µM
TK-10
  GI50: 17.4 µM
  CC50: 55.9 µM
UO-31
  GI50: 13.5 µM
  CC50: 51.3 µM
PC-3
  GI50: 17.2 µM
  CC50: 55.6 µM
DU-145
  GI50: 16.4 µM
  CC50: 54.8 µM
MDA-MB-231
  GI50: 19.8 µM
  CC50: 74.6 µM
MDA-MB-435
  GI50: 17.5 µM
  CC50: 56 µM
BT-549
  GI50: 17.1 µM
  CC50: 56.8 µM
T-47D
  GI50: 7.7 µM
  CC50: 55.4 µM

## COc1cc(/C=C/C(=O)CC(=O)/C=C/c2ccc(O)c(OC)c2)ccc1O [Curcumin]
CCRF-CEM
  GI50: 3.2 µM
MOLT-4
  GI50: 5 µM
  CC50: 79.4 µM
RPMI-8226
  GI50: 2 µM
HOP-62
  GI50: 4 µM
NCI-H23
  GI50: 5 µM
  CC50: < 100 µM
COLO 205
  GI50: 12.6 µM
  CC50: 63.1 µM
KM12
  GI50: 5 µM
  CC50: 63.1 µM
SF-295
  GI50: 7.9 µM
  CC50: 50.1 µM
SNB-19
  GI50: 7.9 µM
  CC50: 63.1 µM
SNB-75
  GI50: 6.3 µM
  CC50: 50.1 µM
M14
  GI50: 4 µM
  CC50: 50.1 µM
SK-MEL-28
  GI50: 5 µM
  CC50: 50.1 µM
SK-MEL-5
  GI50: 7.9 µM
IGROV1
  GI50: 7.9 µM
  CC50: 79.4 µM
OVCAR-3
  GI50: 6.3 µM
  CC50: 63.1 µM
OVCAR-4
  GI50: 10 µM
  CC50: < 100 µM
SK-OV-3
  GI50: 7.9 µM
  CC50: 50.1 µM
786-0
  GI50: 3.2 µM
  CC50: 39.8 µM
A498
  GI50: 15.8 µM
  CC50: 63.1 µM
TK-10
  GI50: 15.8 µM
  CC50: 63.1 µM
UO-31
  GI50: 12.6 µM
  CC50: 50.1 µM
PC-3
  GI50: 7.9 µM
  CC50: 63.1 µM
DU-145
  GI50: 15.8 µM
  CC50: 63.1 µM
MDA-MB-231
  GI50: 20 µM
  CC50: < 100 µM
MDA-MB-435
  GI50: 3.2 µM
  CC50: 39.8 µM
BT-549
  GI50: 5 µM
  CC50: 39.8 µM
T-47D
  GI50: 7.9 µM
  CC50: < 100 µM

## C(=C\c1ccccc1)/S/C=C/c1ccccc1 [EF15]
[1]; 48 hours
  GI50: 75.9 µM

## 3,5-Bis(2-hydroxybenzylidene)-sulfone [EF11]
[1]; 48 hours
  GI50: 34.7 µM
